By melting point is commonly meant the temperature, or range, at which the solid turns liquid. Broadly, the IC50 is the point on the concentration scale where inhibition reaches its midpoint.

These results are taken from patent US8067459B2, “Lapachone compounds and methods of use thereof” (ArQule, Inc., priority 2007, dated 2011).

Data set [1] has as its system DLD-1 human colon carcinoma cells. The data set can be described thus: MTS cell viability assay, DLD-1 colon carcinoma cells. The data set is classed as cell-based. Particulars: read-out: IC50 Values, Cancerous Cells, Colon DLD-1. As to the method: (§1) Cell viability was determined by measuring the activity of dehydrogenase enzymes in metabolically active cells using a tetrazolium compound, MTS. The assay was performed as described in Promega Technical Bulletin No. 169 (CellTiter 96 Aqueous Non-Radioactive Cell Proliferation Assay): All cells lines were grown in DMEM media (4.5 g/L glucose) supplemented with 15% heat-inactivated FBS, 10 mM L-glutamine, and 10 mM HEPES. Briefly, cells were seeded in 96-well plates and incubated for 16 to 24 hours; test compounds were serially diluted in DMSO, further diluted in cell culture media, then added to cells (final DMSO concentration of 0.33% v/v); cells were incubated in the presence of compound for 4 hours; MTS was added to the cells and incubated for four hours; SDS was added to a final concentration of 1.4% v/v and absorbance at 490 nm was measured within two hours using a plate reader. The amount of […] absorbance was directly proportional to the number of living cells in the culture.
(§2) The assays of the present invention as shown in Table 1 and methods of measuring induction of E2F1 activity and elevation of E2F1 levels can be carried out following the descriptions found in Li et al., (2003) Proc Natl Acad Sci USA. 100(5): 2674-8 and U.S. Patent Application Publication No. 2002/0169135, both incorporated herein by reference.
(Tetrazolium dyes change colour on reduction, which living cells bring about.)

Data set [2] deals with A549 human lung carcinoma cells. The data set can be described thus: MTS cell viability assay, A549 lung carcinoma cells. Particulars: read-out: IC50 Values, Cancerous Cells, Lung A549. The format is cell-based. As to the method:
as §1, §2

The test system of data set [3] is DU-145 human prostate carcinoma cells. Nature of the data set: MTS cell viability assay, DU-145 prostate carcinoma cells. The format is cell-based. Particulars: read-out: IC50 Values, Cancerous Cells, Prostate DU-145. The procedure: as §1, §2
The test system of data set [4] is NCM-460 normal colon epithelial cells. Nature of the data set: MTS cell viability assay, NCM-460 normal colon cells. The format is cell-based. The conditions noted are these: for IC50: Homo sapiens, read-out: IC50 Values, Normal Cells, Colon NCM-460; for Fold Selectivity (NCM-460/DLD1): ratio of IC50 NCM-460 to IC50 DLD-1. The procedure:
Since β-lapachone induces cell death only in cancer cell lines and not in normal cells (Li et al., (2003) Proc Natl Acad Sci USA. 100(5): 2674-8), the present compounds were also tested in a panel of normal cell lines from a variety of tissues including NCM-460 normal colon epithelial cells.
as §1, §2

The test system of data set [5] is K-562 human leukemia cells. The data set can be described thus: MTS cell viability assay, K-562 leukemia cells. The data set is classed as cell-based. Particulars: read-out: IC50 Values, Cancerous Cells, Leukemia K-562. As to the method: as §1, §2
Data set [6] has as its system PACA-2 human pancreatic carcinoma cells. Nature of the data set: MTS cell viability assay, PACA-2 pancreatic carcinoma cells. The data set is classed as cell-based. The conditions noted are these: read-out: IC50 Values, Cancerous Cells, Pancreas PACA-2. As to the method:
as §1, §2

The subject of data set [7] is E2F1 checkpoint pathway. The conditions noted are these: earlier studies with β-lapachone; cited from earlier work.
Data set [8] relates to normal fresh or proliferating human PBMC. Particulars: cited from earlier work.
The test system of data set [9] is human cancer cell lines. The conditions noted are these: single agent; typical range; read-out: antineoplastic activity against human cancer cell lines (IC50); cited from earlier work.
The mark [10] stands for this setting: DLD-1, 4 hours with compound, MTS.
Where [11] appears, read: A549, 4 hours with compound, MTS.
Setting [12] is: DU-145, 4 hours with compound, MTS.
Setting [13] is: NCM460, NCM-460, 4 hours with compound, MTS.
Setting [14] is: K562, K-562, 4 hours with compound, MTS.
Where [15] appears, read: PACA-2, 4 hours with compound, MTS.

Read-outs that look alike come from different tables or passages of the source.

`COC(=O)C1(C)CSC2=C(O1)c1ccccc1C(=O)C2=O` (stereo not shown) had a melting point of 188 to 189 °C.

Regarding `CCOC(=O)N1CCN(CC2CSC3=C(O2)c2ccccc2C(=O)C3=O)CC1` (stereo not shown) [Compound 1, ethyl 4-[(5,6-dioxo-2,3,5,6-tetrahydronaphtho[1,2-b][1,4]oxathiin-2-yl)methyl]piperazine-1-carboxylate], the IC50 in [1] (setting [10]) came to 1.84 µM; in [2] (setting [11]), 4.77 µM; in data set [3] (setting [12]) it was 4.01 µM; in data set [4] (setting [13]), 4.78 µM; in data set [5] (setting [14]), 2.93 µM; in data set [6] (setting [15]) it was 1.95 µM. In addition, the “Fold Selectivity (NCM-460/DLD1)” value in [4] was 2.6.

For the compound `O=C1C(=O)c2ccccc2C2=C1SCC(CN1CCC(CO)CC1)O2` (stereo not shown) [Compound 2, 2-{[4-(hydroxymethyl)piperidin-1-yl]methyl}-2,3-dihydronaphtho[1,2-b][1,4]oxathiine-5,6-dione], the IC50 in [1] (setting [10]) worked out at 2.05 µM; in [2] (setting [11]), 11.7 µM; in data set [3] (setting [12]), 3.88 µM; in [4] (setting [13]), 10.8 µM; in data set [5] (setting [14]), 2.84 µM; in data set [6] (setting [15]) it was 1.64 µM. For the same compound, in data set [4], the “Fold Selectivity (NCM-460/DLD1)” value was 5.3.

The compound `O=C1C(=O)c2ccccc2C2=C1SCC(CN1CCC(O)CC1)O2` (stereo not shown) [Compound 3, 2-[(4-hydroxypiperidin-1-yl)methyl]-2,3-dihydronaphtho[1,2-b][1,4]oxathiine-5,6-dione] came in with a melting point of 98 to 100 °C.

`COC(CN(C)CC1CSC2=C(O1)c1ccccc1C(=O)C2=O)OC` (stereo not shown) [Compound 4, 2-{[(2,2-dimethoxyethyl)(methyl)amino]methyl}-2,3-dihydronaphtho[1,2-b][1,4]oxathiine-5,6-dione] displayed a melting point of 80 to 82 °C.

Regarding `O=C1C(=O)c2ccccc2C2=C1SCC(CN1CCN(c3ccc(F)cc3)CC1)O2` (stereo not shown) [Compound 5, -{[4-(4-fluorophenyl)piperazin-1-yl]methyl}-2,3-dihydronaphtho[1,2-b][1,4]oxathiine-5,6-dione], the half-inhibitory concentration (IC50) in data set [1] (setting [10]) worked out at 1.57 µM; in data set [2] (setting [11]) it was 4.79 µM; in [3] (setting [12]) it was 1.49 µM; in [4] (setting [13]), 9.83 µM; in data set [5] (setting [14]), 2.68 µM; in [6] (setting [15]) it was 1.34 µM. Further, in data set [4], the “Fold Selectivity (NCM-460/DLD1)” value is listed as 6.3.

As for `O=C1C(=O)c2ccccc2C2=C1SCC(CNCCc1ccccc1)O2` (stereo not shown) [Compound 6, 2-{[(2-phenylethyl)amino]methyl}-2,3-dihydronaphtho[1,2-b][1,4]oxathiine-5,6-dione], the IC50 in data set [1] (setting [10]) stood at 4.01 µM; in [2] (setting [11]), 12.9 µM; in data set [3] (setting [12]), 4.67 µM; in [4] (setting [13]) it was 17.1 µM; in data set [5] (setting [14]), 5.29 µM; in data set [6] (setting [15]), 3.78 µM. For the same compound, the “Fold Selectivity (NCM-460/DLD1)” value in data set [4] was found to be 4.3.

As for `O=C1C(=O)c2ccccc2C2=C1SCC(CNCc1ccccc1)O2` (stereo not shown) [Compound 7, 2-[(benzylamino)methyl]-2,3-dihydronaphtho[1,2-b][1,4]oxathiine-5,6-dione], the IC50 was 2.95 µM in data set [1] (setting [10]); 11.3 µM in data set [2] (setting [11]); 4.22 µM in data set [3] (setting [12]); 11.4 µM in data set [4] (setting [13]); 3.89 µM in [5] (setting [14]); 2.75 µM in [6] (setting [15]). In addition, in [4], the “Fold Selectivity (NCM-460/DLD1)” value is on record as 3.9.

In the case of `CC(C)NC(=O)CN1CCN(CC2CSC3=C(O2)c2ccccc2C(=O)C3=O)CC1` (stereo not shown) [Compound 8, 2-{4-[(5,6-dioxo-2,3,5,6-tetrahydronaphtho[1,2-b][1,4]oxathiin-2-yl)methyl]piperazin-1-yl}-N-isopropylacetamide], the melting point fell in the range of 85 to 87 °C.

In the case of `O=C1C(=O)c2ccccc2C2=C1SCC(CN1CCC3(CC1)OCCO3)O2` (stereo not shown) [Compound 9, 2-(1,4-dioxa-8-azaspiro[4.5]dec-8-ylmethyl)-2,3-dihydronaphtho[1,2-b][1,4]oxathiine-5,6-dione], the melting point was in the range of 202 to 204 °C.

On to `O=C(Nc1ccccc1)OCC1CSC2=C(O1)c1ccccc1C(=O)C2=O` (stereo not shown) [Compound 11, (5,6-dioxo-2,3,5,6-tetrahydronaphtho[1,2-b][1,4]oxathiin-2-yl)methyl phenylcarbamate], for which the IC50 in data set [1] (setting [10]) is 1.36 µM; in data set [2] (setting [11]), 5.44 µM; in data set [3] (setting [12]), 4.05 µM; in data set [4] (setting [13]), 7.65 µM; in data set [5] (setting [14]), 2.73 µM; in data set [6] (setting [15]), 2.05 µM. Besides, in [4], the “Fold Selectivity (NCM-460/DLD1)” value was determined as 5.6.

With `CC(C)NC(=O)OCC1CSC2=C(O1)c1ccccc1C(=O)C2=O` (stereo not shown) [Compound 12, (5,6-dioxo-2,3,5,6-tetrahydronaphtho[1,2-b][1,4]oxathiin-2-yl)methyl isopropylcarbamate], the IC50 in data set [1] (setting [10]) is 2.17 µM; in data set [2] (setting [11]), 4.66 µM; in data set [3] (setting [12]), 3.72 µM; in data set [4] (setting [13]) it was 5.92 µM; in data set [5] (setting [14]), 1.51 µM; in data set [6] (setting [15]), 1.68 µM. In [4], the “Fold Selectivity (NCM-460/DLD1)” value is 2.7.

As to `CCCC1CCOC2=C(S1)C(=O)C(=O)c1ccccc12` (stereo not shown) [Compound 13, 4-propyl-3,4-dihydro-2H-naphtho[1,2-b][1,4]oxathiepine-6,7-dione], the IC50 in data set [1] (DLD-1, 4 h) was 12.9 µM; in data set [2] (A549, 4 h), greater than 100 µM; in data set [3] (DU-145, 4 h), 13.2 µM; in data set [4] (NCM460, 4 h), 18.6 µM; in [5] (K562, 4 h), 10.9 µM; in [6] (PaCa-2, 4 h), 12.1 µM. The “Fold Selectivity (NCM-460/DLD1)” value in data set [4] came out at 1.4.

As to `CC1CSC2=C(O1)c1cc(-c3ccccc3)ccc1C(=O)C2=O` (stereo not shown) [Compound 14, 2-methyl-9-phenyl-2,3-dihydronaphtho[1,2-b][1,4]oxathiine-5,6-dione], the IC50 in data set [1] (setting [10]) is 3.8 µM; in data set [2] (setting [11]), greater than 100 µM; in data set [3] (setting [12]) it was 3.79 µM; in data set [4] (setting [13]), 10.1 µM; in [5] (setting [14]), 4.61 µM; in [6] (setting [15]), 3.39 µM. Further, in data set [4], the “Fold Selectivity (NCM-460/DLD1)” value is listed as 2.7.

For the compound `CC1CSC2=C(O1)c1cc(N3CCCCC3)ccc1C(=O)C2=O` (stereo not shown) [Compound 15, 2-methyl-9-piperidin-1-yl-2,3-dihydronaphtho[1,2-b][1,4]oxathiine-5,6-dione], the IC50 in data set [1] (setting [10]) was 32.8 µM; in data set [2] (setting [11]), greater than 100 µM; in data set [3] (setting [12]), greater than 100 µM; in [4] (setting [13]), 33.6 µM; in data set [5] (setting [14]), 58.2 µM; in data set [6] (setting [15]), 32.4 µM. Further, the “Fold Selectivity (NCM-460/DLD1)” value in data set [4] is reported as 1.0.

Regarding `O=C1C(=O)c2ccccc2C2=C1SCC(COc1cccnc1)O2` (stereo not shown) [Compound 17, 2-[(pyridin-3-yloxy)methyl]-2,3-dihydronaphtho[1,2-b][1,4]oxathiine-5,6-dione], the IC50 in [1] (setting [10]) was found to be 2.39 µM; in data set [2] (setting [11]), 5.08 µM; in data set [3] (setting [12]), 3.82 µM; in data set [4] (setting [13]) it was 5.61 µM; in data set [5] (setting [14]), 2.89 µM; in data set [6] (setting [15]) it was 2.04 µM. The “Fold Selectivity (NCM-460/DLD1)” value in data set [4] is 2.3.

With `CC1(C)CCC2=C(O1)c1ccccc1C(=O)C2=O` [β-lapachone, 3,4-dihydro-2,2-dimethyl-2H-naphtho[1,2-b]pyran-5,6-dione], the “activation of E2F1 checkpoint pathway in nuclei of cancer cells but not in normal cells” value in data set [7] is on record as “induces activation of E2F1 checkpoint pathway”. Further, the “cytotoxic effects on normal human PBMC” value in [8] is listed as “No cytotoxic effects”. For the same compound, the IC50 in data set [9] is 1 to 10 µM.
